“Also recorded” adds a separate entry of the source. Marks after values point to notes of the source that are not given here.
Key:
[1] = system: Colo 205 human colonic adenocarcinoma cell line; experiment: Cytotoxicity (MTT) on sensitive Colo 205 cells; format: cell-based; settings: for IC50: Homo sapiens, COLO 205, 24 h, MTT, read-out: Colo 205 (IC50 µM) Mean; for SI MRC-5/Colo 205: ratio IC50 non-tumour cells / IC50 cancer cells
Source text: (§1) Three cell lines have been used in this study: the doxorubicin-sensitive Colo 205 (CCL-222, ATCC, Manassas, VA, USA) human colonic adenocarcinoma cell line; the multidrug resistant Colo 320/MDR-LRP expressing P-gp (MDR1)-LRP (CCL-220.1, ATCC) human colonic adenocarcinoma cell line; and the MRC-5 human embryonal lung fibroblast cell line (CCL-171, ATCC). The colon adenocarcinoma cell lines were purchased from LGC Promochem (Teddington, UK), and the MRC-5 cell line was purchased from Sigma-Aldrich (Merck KGaA, Darmstadt, Germany). Their culture conditions are as follows: Colo 205 (CCL-222, ATCC) and Colo 320/MDR-LRP expressing P-gp (MDR1)-LRP (CCL-220.1, ATCC) human colon adenocarcinoma cell lines were cultured in RPMI 1640 medium, supplemented with 10% FBS, 2 mM L-glutamine, 1 mM Na-pyruvate, and […]. The cell lines were incubated at 37 °C, 5% CO2, and 95% air atmosphere. The semi-adherent human colon cancer cells were detached with a Trypsin-Versene (EDTA) solution for 5 min at 37 °C. MRC-5 human embryonal lung fibroblast cells were cultured in EMEM containing 4.5 g/L of glucose and supplemented with a non-essential amino acid mixture, a selection of vitamins, and 10% FBS. The cell lines were incubated at 37 °C, 5% CO2, and 95% air atmosphere.
(§2) The effects of increasing concentrations of the compounds on cell growth were tested in 96-well flat-bottomed microtiter plates. Moreover, 10^4 of human colonic adenocarcinoma cells in 100 μL of the medium (RPMI-1640) were added to each well, except for the medium control wells. The adherent human embryonic lung fibroblast cell line was seeded in the EMEM medium for 4 h before the assay. The two-fold serial dilutions of the compounds were made in a separate plate (0.19–100 μM), and then transferred to the plates containing the adherent corresponding cell line. Culture plates were incubated at 37 °C for 24 h. At the end of the incubation period, 20 μL of MTT (thiazolyl blue tetrazolium bromide) solution (from a 5 mg/mL stock solution) were added to each well. After incubation at 37 °C for 4 h, 100 μL of sodium dodecyl sulfate (SDS) solution (10% SDS in 0.01 M HCl) was added to each well, and the plates were further incubated at 37 °C overnight. Cell growth was determined by measuring the optical density (OD) at 540 nm (ref. 630 nm) with a Multiscan EX ELISA reader (Thermo Labsystems, Cheshire, WA, USA). Inhibition of cell growth was expressed as IC50 values, defined as the inhibitory dose that reduces the growth of the cells exposed to the tested compounds by 50%. IC50 values and the SD of triplicate experiments were calculated by using GraphPad Prism software version 5.00 for Windows, with a non-linear regression curve fit (GraphPad Software, San Diego, CA, USA; www.graphpad.com, accessed on 12 July 2021). Doxorubicin (from a 2 mg/mL stock solution, Teva Pharmaceuticals) was used as a positive control.
(§3) The selectivity indexes (SI) were calculated as the ratio of the IC50 value in the non-tumour cells and the IC50 in the cancer cell lines. The compound’s activity towards cancer cells is considered as strongly selective if the selectivity index (SI) value is higher than 6, moderately selective if 3 < SI < 6, slightly selective if 1 < SI < 3, and non-selective if SI is lower than 1 [16].

[2] = system: HepG2 (hepatocellular carcinoma); experiment: Cytotoxicity on HepG2 cells; format: cell-based, human; settings: ratio IC50 non-tumour cells / IC50 cancer cells
[3] = system: HeLa (cervical adenocarcinoma); experiment: Cytotoxicity on HeLa cells; format: cell-based; settings: Homo sapiens
Description: (§4) The activity of selenoesters was tested on several cancer cell lines, including HepG2 (hepatocellular carcinoma, CCL-23TM, ATCC); HeLa (cervical adenocarcinoma, CCL-2TM, ATCC); B16 (skin melanoma, CCL-6322TM, ATCC); and a non-cancerous cell line, HDF (human dermal fibroblasts, Sigma-Aldrich). HepG2, HeLa, B16, and HDF cell lines were cultivated in EMEM medium supplemented with 10% FBS, 2 mM L-glutamine, and 1% penicillin-streptomycin mixture. The HaCaT cell line was cultivated in DMEM medium supplemented with 10% FBS and 1% penicillin-streptomycin mixture. All of the cells were cultivated in a CO2 incubator (5% CO2, 37 °C). Twice per week, the cell lines were passaged according to a standardized protocol with a trypsin-EDTA solution.
as §3

[4] = system: resistant Colo 320 colon adenocarcinoma cells expressing the ABCB1 transporter; experiment: Checkerboard combination assay with doxorubicin; format: cell-based, human
Description: A checkerboard microplate method was applied to study the effect of drug interactions between the selenocompounds and the chemotherapeutic drug doxorubicin on resistant Colo 320 colon adenocarcinoma cells expressing the ABCB1 transporter. Results were expressed in terms of the combination index (CI) values at 50% growth inhibition (ED50), which were determined by using CompuSyn software to plot 4 or 5 data points for each ratio.
To perform the experiment, the dilutions of doxorubicin were made in a horizontal direction in 100 µL, and the dilutions of the Se-compounds were made vertically in the microtiter plate in a volume of 50 µL. The cells were re-suspended in the culture medium and distributed into each well in 50 µL portions containing 6000 cells. The plates were incubated for 72 h at 37 °C in a CO2 incubator. The cell growth rate was determined after MTT staining. At the end of the incubation period, 20 μL of MTT solution was added to each well. After incubation at 37 °C for 4 h, 100 μL of SDS was added to each well and the plates were further incubated at 37 °C overnight. The optical density (OD) was measured at 540/630 nm with the Multiscan EX ELISA reader.

[5] = system: HepG2 (hepatocellular carcinoma); experiment: Cytotoxicity on HepG2 cells; format: cell-based; settings: Homo sapiens
Description: as §4, §3

B16 (skin melanoma) = experiment: Cytotoxicity on B16 cells; format: cell-based, murine; settings: Mus musculus
Description: as §4, §3

[6] = system: Colo 320/MDR-LRP human colonic adenocarcinoma cell line; experiment: Cytotoxicity (MTT) on resistant Colo 320 cells; format: cell-based; settings: for IC50: Homo sapiens, COLO 320, 24 h, MTT, read-out: Colo 320 (IC50 µM) Mean; for SI MRC-5/Colo 320: ratio IC50 non-tumour cells / IC50 cancer cells
Source text: as §1, §2, §3

[7] = Cytotoxicity (MTT) on normal MRC-5 fibroblasts; format: cell-based; settings: human
Source text: as §1, §2

HaCaT cell line = experiment: Toxicity on HaCaT cells (IC10 used as dose); format: cell-based; settings: Homo sapiens, concentration inhibiting 10% of the population, highest non-toxic concentration, read-out: Dose IC10
Description: as §4, with “solution. […]” for “solution.”
Wound healing activity of selenoesters was evaluated as the ability of the cells to migrate and close the gap created on the monolayer of human keratinocytes (HaCaT cell line). The tested substances were applied in the highest possible non-toxic concentration (IC10, concentration inhibiting 10% of the population). In general, ketone-selenoesters were more toxic (except K4 and K1) than cyano-selenoesters (except N4); therefore, they were applied at lower doses (0.17–0.30 µM) when compared to cyanoselenoesters (0.36–0.64 µM). Compounds K1, K4, and N4 were applied at a concentration of 0.30, 0.46, and 0.20 µM, respectively. As could be seen in Table 8, all ketone-selenoesters stimulated wound healing more effectively in comparison to both untreated control (p < 0.0000005) and allantoin (p < 0.00005). […] Only samples N1, N2, N4, and N7 closed effectively the damaged wound in 24 h, with the gap closure around 70%.

[8] = system: human keratinocyte (HaCaT); experiment: Wound healing scratch assay; format: cell-based; settings: 50 µg/mL positive control
Description: Wound healing activity was realized using human keratinocyte (HaCaT, Thermo Fisher Scientific, Waltham, MA, USA). Wound healing was measured in vitro by scratch assay, as the migration rate of the cells to close the gap was created, as described by Ling et al., with slight modifications. Briefly, HaCaT cells at the concentration of 5×10^5 cells were seeded into 12-well plates and incubated at 37 °C and 5% CO2 until the cells formed a uniform layer. After layer formation, the cells were washed with PBS and then scratched with a sterile micropipette tip. […] The images of the scratch area were captured using an inverted microscope in 4× magnification at different time intervals (0 h, 24 h, 48 h) and evaluated using ImageJ software (National Institutes of Health, Bethesda, MD, USA). All of the experiments were performed in four replicates, and a minimum of five measurements were considered from each image captured. Dean–Dixon’s test was used to remove the outliners in the values measured, and further statistical significances between the groups were established by t-test (Excel, Microsoft Office, Redmond, WA, USA). The wound closure was calculated as the ratio of the gap size at the beginning minus the gap size at the evaluated time.

N#CC[Se]C(=O)c1ccc(F)c(Cl)c1 [N6, Se-(Cyanomethyl) 3-Chloro-4-fluorobenzoselenoate]
IC50 [1]: 2.24 µM | SI MRC-5/Colo 205 [1]: >6 * | SI MRC-5/HepG2 [2]: >6 * | IC50 [3]: 1.3 µM | Type of Interaction ([4]; ratio 1.2:1, starting conc. 10 µM): Antagonism | Type of Interaction ([4]; ratio 4.8:1, starting conc. 10 µM): Antagonism | Type of Interaction ([4]; ratio 9.6:1, starting conc. 10 µM): Antagonism | Type of Interaction ([4]; ratio 19.2:1, starting conc. 10 µM): Antagonism | Type of Interaction ([4]; ratio 38.4:1, starting conc. 10 µM): Antagonism | IC50 [5]: 9.6 µM | melting point: 73 to 75 °C | IC50 (B16 (skin melanoma)): 1.7 µM | IC50 [6]: 5.19 µM | SI MRC-5/Colo 320 [6]: >6 * | IC50 at 24 h [7]: > 100000 nM | IC10 (HaCaT cell line): 600 nM

NC(=O)NC1NC(=O)NC1=O (centres unmarked) [PC, Allantoin]
Closure (%) 24 h ([8]; 24 h): 70.37% | Closure (%) 48 h ([8]; 48 h): 84.63%

N#CC[Se]C(=O)c1cccs1 [N1, Se-(Cyanomethyl) Thiophene-2-carboselenoate]
IC50 [1]: 2.37 µM | SI MRC-5/Colo 205 [1]: >6 * | SI MRC-5/HepG2 [2]: >6 * | IC50 [3]: 2 µM | Interaction with doxorubicin ([4]; in at least one of the ratios tested): synergistic manner; also recorded: synergistic effect | Type of Interaction ([4]; ratio 1.7:1, starting conc. 15 µM): Antagonism | Type of Interaction ([4]; ratio 3.4:1, starting conc. 15 µM): Synergism | Type of Interaction ([4]; ratio 6.8:1, starting conc. 15 µM): Synergism | Type of Interaction ([4]; ratio 13.6:1, starting conc. 15 µM): Additive effect | Type of Interaction ([4]; ratio 27.2:1, starting conc. 15 µM): Synergism | IC50 [5]: 11.3 µM | melting point: 50 to 52 °C | IC50 (B16 (skin melanoma)): 1.9 µM | IC50 [6]: 7.64 µM | SI MRC-5/Colo 320 [6]: >6 * | IC50 at 24 h [7]: > 100000 nM | IC10 (HaCaT cell line): 400 nM
